For one data set, the target named is T1, HpoR (Ms5860) (Mycolicibacterium smegmatis, UniProt A0R4J9).
T1 sequence (A0R4J9 1-199): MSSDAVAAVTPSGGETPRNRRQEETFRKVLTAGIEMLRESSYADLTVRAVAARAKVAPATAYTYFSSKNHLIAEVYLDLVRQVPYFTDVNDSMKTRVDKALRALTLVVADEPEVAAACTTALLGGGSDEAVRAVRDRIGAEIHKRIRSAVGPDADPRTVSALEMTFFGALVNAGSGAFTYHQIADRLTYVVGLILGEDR
Kind of data set: isothermal titration calorimetry. Type of data set: binding.

Data set [1] addresses Mtb HpoR (Rv0767c); HpoRMtb (Mycobacterium tuberculosis, UniProt P9WMD7).
The subject of data set [2] is HpoR (HpoRMS) (Mycobacterium smegmatis mc2 155). Kind of data set: SPR. (In SPR one partner is held on a chip, and binding of the other changes the refractive index at the surface.)

In general, Kd refers to a measure of binding affinity in units of concentration.

Mtb HpoR (Rv0767c); HpoRMtb, sequence (P9WMD7 whole entry): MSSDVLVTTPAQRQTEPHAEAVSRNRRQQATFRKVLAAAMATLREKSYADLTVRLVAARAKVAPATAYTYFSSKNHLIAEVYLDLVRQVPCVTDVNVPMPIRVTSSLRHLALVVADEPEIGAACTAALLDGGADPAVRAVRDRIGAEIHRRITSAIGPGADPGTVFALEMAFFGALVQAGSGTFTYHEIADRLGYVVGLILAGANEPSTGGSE

Turning to `Nc1nc2c(ncn2[C@@H]2O[C@@H]3COP(=O)(O)O[C@H]4[C@@H](O)[C@H](n5cnc6c(=O)[nH]c(N)nc65)O[C@@H]4COP(=O)(O)O[C@H]3[C@H]2O)c(=O)[nH]1` [c-di-GMP], binding on HpoR (Ms5860) was characterised by a dissociation constant (Kd) of 1780 ± 230 nM. For the same compound, the “UV cross-linking with radiolabelled ligand, SDS-PAGE autoradiography” value in data set [1] was “Mtb HpoR (Rv0767c) showed a good binding ability for c-di-GMP”.
Turning to Ms5860p, biotin-labeled, in data set [2], the binding signal amounted to 150 RU.

Source of the values: publication PMC5909442 (Nucleic Acids Research, 2018).
